Data on one compound can be found in ChEMBL document CHEMBL4118129, “Evaluation of novel TGR5 agonist in combination with Sitagliptin for possible treatment of type 2 diabetes” (Bioorg Med Chem Lett, 2018).

The structures appear in SMILES notation.

What all share (type): ADME, organism-based
A short description of data set [1]: Terminal half life in C57BL/6 mouse at 30 mg/kg, po by LC-MS/MS analysis. To be noted: in vivo, read-out: beta t1/2 (converted).
The nature of data set [2]: Tmax in C57BL/6 mouse at 30 mg/kg, po by LC-MS/MS analysis. To be noted: in vivo.
Data set [3] in a line: AUC in C57BL/6 mouse at 30 mg/kg, po by LC-MS/MS analysis. To be noted: in vivo.
Data set [4] is described as follows: Cmax in C57BL/6 mouse at 30 mg/kg, po by LC-MS/MS analysis. Also on record: dose 30 mg/kg, route oral. To be noted: in vivo.

For `COc1ccc(C(C)(C)c2cnc(SCCOCc3ccc(C#N)cc3)n2-c2ccc(F)cc2)cc1OC`, the half-life in data set [1] is 60 min. The Tmax in data set [2] came out at 12 min. Besides, the AUC in data set [3] came to 2.5 µM·h. In data set [4], this compound gave a Cmax of 2100 nM.
